Consider 16 molecules from paper PMC8032668, “Evaluation of carboxyfluorescein-labeled 7-methylguanine nucleotides as probes for studying cap-binding proteins by fluorescence anisotropy” (Scientific Reports, 2021).

For assay [1], the system named is DcpS. The arrangement: method as in PMID 27031609. The conditions noted are these: DcpS inhibition, FR assay; cited from earlier work.
The target in assay [2] is T1, DcpS (Homo sapiens, UniProt Q96C86).
T1 construct: His tag; made in house; host or cells: E. coli BL21(DE3) RIL
T1 sequence (Q96C86 1-337): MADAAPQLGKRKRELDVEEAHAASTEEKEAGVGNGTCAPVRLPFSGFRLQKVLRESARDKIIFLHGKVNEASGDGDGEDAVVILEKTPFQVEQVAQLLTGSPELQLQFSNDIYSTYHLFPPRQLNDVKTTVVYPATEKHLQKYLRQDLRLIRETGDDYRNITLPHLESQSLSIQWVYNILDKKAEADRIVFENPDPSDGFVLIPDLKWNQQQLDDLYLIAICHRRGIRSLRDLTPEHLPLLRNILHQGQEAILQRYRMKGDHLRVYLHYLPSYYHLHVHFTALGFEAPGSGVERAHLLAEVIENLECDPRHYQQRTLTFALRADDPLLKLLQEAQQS
In words: FA screening of in-house library, 2i:DcpS system. The conditions noted are these: 1 nM 2i, 25 nM DcpS, 1.5 µM inhibitor. Format: binding. The method, then:
The Z’ factor was determined under conditions optimized for the competition assay. The Z’ value exceeded 0.8 for incubation times up to 1 h, making the assay suitable for screening experiments (Table 5). A screening experiment was then performed using the same compound library as that used for eIF4E screening. The results highlighted the impact of the triphosphate bridge modification on the affinity for the protein. […] The FA method also enabled the identification of unstable compounds, e.g., hydrozylable ligands for which determination of affinity is problematic (as observed by FA signal changes during the experiment; Fig. 7).
To evaluate the quality of the assay, the Z’ factor was determined for several protein-probe combinations. The assay was performed on 96-well microplates, where half of the samples were negative controls and the other half were positive controls.
For the screening experiments a small in-house library containing 21 ligands was used. Experiments were conducted in the same manner as Z’ factor determination, with exception that the ligand concentration was modified (eIF4E screening conditions: 1 nM 1e, 100 nM eIF4E, 750 nM ligand, DcpS screening conditions: 1 nM 2i, 25 nM DcpS, 1.5 µM ligand). For eIF4E screening experiment, the 1e:eIF4E system was used, for DcpS screening 2i:DcpS system was used.

The next assay has as its target T2, eIF4E (Mus musculus, UniProt P63073).
T2 construct: Murine eIF4E (residues 28–217) was expressed in E. coli; made in house; host or cells: E. coli
In words: FA competition (probe-displacement) assay for eIF4E. Type of assay: binding, Murine. The conditions noted are these: for EC50: HEPES pH 7.2. The method, then:
Inclusion bodies containing eIF4E were solubilized in 50 mM HEPES/KOH (pH 7.2) buffer containing 10% glycerol, 6 M guanidine hydrochloride and 2 mM DTT. Protein was then refolded during a two-step dialysis against buffer with decreasing concentration of guanidine hydrochloride in the presence of 100 mM KCl. Subsequently eIF4E was loaded on ion exchange HiTrap SP HP column (GE Healthcare), eluted with linear gradient of 0.1–1 M KCl and finally desalted and polished during a gel filtration purification step on HiLoad 16/600 Superdex 75 pg (GE Healthcare) using 50 mM HEPES pH 7.2, 100 mM KCl, 0.5 mM EDTA, 2 mM DTT buffer. eIF4E was aliquoted and stored in the presence of 10% glycerol at −80 °C. Before each experiment the protein was centrifuged on Ultrafree-MC Centrifugal PVDF filter with […] pore size (Millipore), at 4 °C and 3000×g for 2 min to remove any possible aggregates.
(§1) Experiments were carried out at 25 °C in 96-well non-binding microplates with sample volume of 200 µl per well. Two different buffers were used depending on protein used in the assay:
eIF4E assay buffer—50 mM HEPES (pH 7.2), 100 mM KCl, 0.5 mM EDTA, 1 mM DTT.
(§2) For competitive binding assay, a mixture containing the probe and the protein was incubated with the tested ligand.
(§3) In competitive measurements, a constant concentration of the protein and fluorescent probe and increasing concentration of the test ligand were used. At least 12 point dilutions of the tested compound were used. The experiments were carried out in 96-well plates. Each sample contained a mixture consisting of the probe, tested ligand and buffer (same as for the direct binding assay). The samples were incubated for 10 min at 25 °C with simultaneous shaking, then the protein was added to each well, incubated for additional 3 min, followed by the measurement of fluorescence anisotropy. FA signals were recorded for 20 min with 2 min intervals.

Assay [3] concerns the target T1, DcpS. Nature of the assay: FA competition assay for DcpS. Format: binding. The method, then: Expression of recombinant His-tagged human DcpS was performed in BL21(DE3) RIL strain and induced overnight at 18 °C using 0.5 mM IPTG as described previously. Cells were harvested, resuspended in buffer (50 mM Tris pH 7.6, 500 mM NaCl, 20 mM imidazole) with lysozyme (0.1 mg/ml) and protease inhibitors (1 mM PMSF, 1 µM pepstatin A, 0.3 µM aprotinin) and then lysed using sonication. Lysate was clarified by centrifugation at 35 000 × g for 40 min at 4 °C. […] The enzyme hDcpS was purified to homogeneity on HiLoad 16/600 Superdex 200 pg (GE Healthcare) gel filtration column using 50 mM Tris·HCl pH 7.6, 200 mM NaCl, 2 mM DTT buffer. Protein was aliquoted and stored in the presence of 10% glycerol at -80 °C.
as §1
DcpS assay buffer—50 mM Tris–HCl (pH 7.6), 200 mM KCl, 0.5 mM EDTA, 1 mM DTT.
as §2, §3

The mark [4] stands for this setting: Probe 1a: 10 nM probe 1a and 100 nM eIF4E.
The mark [5] stands for this setting: Probe 1b: 1 nM probe 1b and 15 nM eIF4E.
The mark [6] stands for this setting: Probe 1e: footnote c, 1 nM probe 1c and 100 nM eIF4E.
[7] abbreviates: 1f:DcpS system, 1f and 100 nM DcpS.
Where [8] appears, read: 2g:DcpS system, 2 nM 2g and 25 nM DcpS.
The mark [9] stands for this setting: 2i:DcpS system, 1 nM 2i and 25 nM DcpS.
The mark [10] stands for this setting: 2h:DcpS system, 2 nM 2h and 25 nM DcpS.

T2 sequence (P63073 28-217): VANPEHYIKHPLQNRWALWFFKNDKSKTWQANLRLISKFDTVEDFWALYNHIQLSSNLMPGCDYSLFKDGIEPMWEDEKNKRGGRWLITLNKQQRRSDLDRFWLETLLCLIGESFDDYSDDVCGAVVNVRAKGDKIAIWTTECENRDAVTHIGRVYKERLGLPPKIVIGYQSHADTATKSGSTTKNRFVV

Regarding `Nc1nc(N)c2c(OCC3CCN(Cc4c(Cl)cccc4Cl)CC3)cccc2n1` [RG3039], the IC50 in the assay on DcpS [1] is […].
As to `[BH3-]P(=O)(OP(=O)(O)OCC1OC(n2cnc3c(=O)[nH]c(N)nc32)C(O)C1O)OP(=O)(O)OCC1OC(n2c[n+](C)c3c(=O)[nH]c(N)nc32)C(O)C1O` (stereo not shown) [m^7GppBH3pG D2], the “stability towards DcpS (FA signal changes during the screening experiment)” value at DcpS [2] is on record as “slowly hydrolyzed DcpS substrates”.
In the case of m^7GSppSpG D1, on DcpS [2], the “inhibitory potency in DcpS screening” value is “the most potent inhibitors”.
On to m^7GSppSpG D2, for which the “inhibitory potency in DcpS screening” value at DcpS [2] is reported as “the most potent inhibitors”.
Take `C[n+]1cn([C@@H]2O[C@H](COP(=O)([O-])OP(O)(=S)OP(=O)(O)OC[C@H]3O[C@@H](n4cnc5c(=O)[nH]c(N)nc54)[C@H](O)[C@@H]3O)[C@@H](O)[C@H]2O)c2nc(N)[nH]c(=O)c21` (single isomer, unassigned) [m^7GppSpG D1]: the Hill slope is reported as 1.37 ± 0.02 at eIF4E (setting [4]), 1.16 ± 0.18 on eIF4E (setting [5]) and 1.10 ± 0.06 at eIF4E (setting [6]). The EC50 was 184 ± 13 nM at eIF4E (setting [4]), 210 ± 32 nM at eIF4E (setting [5]) and 226 ± 43 nM on eIF4E (setting [6]).
As for `[BH3-]P(=O)(OP(=O)(O)OCC1OC(n2cnc3c(=O)[nH]c(N)nc32)C(O)C1O)OP(=O)(O)OCC1OC(n2c[n+](C)c3c(=O)[nH]c(N)nc32)C(O)C1O` (stereo not shown) [m^7GppBH3pG D1], the “stability towards DcpS (FA signal changes during the screening experiment)” value on DcpS [2] is recorded as “slowly hydrolyzed DcpS substrates”.
With `C[n+]1cn([C@@H]2O[C@H](COP(=O)([S-])OP(=O)(O)OP(=O)(O)OC[C@H]3O[C@@H](n4cnc5c(=O)[nH]c(N)nc54)[C@H](O)[C@@H]3O)[C@@H](O)[C@H]2O)c2nc(N)nc(O)c21` (stereo partly shown) [m^7GpSppG D1], at DcpS [2], the “stability towards DcpS (FA signal changes during the screening experiment)” value was “slowly hydrolyzed DcpS substrates”.
Turning to `CO[C@@H]1[C@H](O)[C@@H](COP([O-])(=S)OP(=O)(O)OP(=O)(O)OP(=O)(O)OC[C@H]2O[C@@H](n3cnc4c(=O)[nH]c(N)nc43)[C@H](O)[C@@H]2O)O[C@H]1n1c[n+](C)c2c(=O)[nH]c(N)nc21` (single isomer, unassigned) [m^7′-OGpSpppG D1, m^7,2′-OGpSpppG D1], the Hill slope at eIF4E (setting [4]) is 2.07 ± 0.02; on eIF4E (setting [5]), 1.64 ± 0.10; on eIF4E (setting [6]) it was 1.46 ± 0.60. Moreover, the EC50 on eIF4E (setting [4]) was determined as 68 ± 3 nM; on eIF4E (setting [5]) it was 22.2 ± 3.7 nM; on eIF4E (setting [6]) it was 51.4 ± 6.1 nM.
Regarding `CO[C@@H]1[C@H](O)[C@@H](COP([O-])(=S)OP(=O)(O)OP(=O)(O)OP(=O)(O)OC[C@H]2O[C@@H](n3cnc4c(=O)[nH]c(N)nc43)[C@H](O)[C@@H]2O)O[C@H]1n1c[n+](C)c2c(=O)[nH]c(N)nc21` (single isomer, unassigned) [m^7′-OGpSpppG D2, m^7,2′-OGpSpppG D2], the Hill slope on eIF4E (setting [4]) was determined as 1.94 ± 0.26; at eIF4E (setting [5]) it was 1.37 ± 0.08; on eIF4E (setting [6]) it was 1.40 ± 0.06. The half-maximal effective concentration (EC50) at eIF4E (setting [4]) is 74 ± 10 nM; on eIF4E (setting [5]), 34.9 ± 7 nM; on eIF4E (setting [6]), 64.3 ± 3.4 nM.
For the molecule `C[n+]1cn([C@@H]2O[C@H](COP(=O)(O)CP(=O)(O)OP(=O)(O)OC[C@H]3O[C@@H](n4cnc5c(=O)[nH]c(N)nc54)[C@H](O)[C@@H]3O)[C@@H](O)[C@H]2O)c2nc(N)[nH]c(=O)c21` [m^7GpCH2ppG], the “inhibitory potency in DcpS screening” value at DcpS [2] is recorded as “strong DcpS inhibitors”.
Take `C[n+]1cn([C@@H]2O[C@H](COP(=O)(O)CP(=O)(O)OP(=O)([O-])OP(=O)(O)OC[C@H]3O[C@@H](n4cnc5c(=O)[nH]c(N)nc54)[C@H](O)[C@@H]3O)[C@@H](O)[C@H]2O)c2nc(N)nc(O)c21` [m^7GpCH2pppG]: on DcpS [2], the “inhibitory potency in DcpS screening” value is given as “strong DcpS inhibitors”.
Take m^7GSppSpSG D2: the “inhibitory potency in DcpS screening” value at DcpS [2] is reported as “the most potent inhibitors”.
As to `Cn1c[n+]([C@@H]2O[C@H](COP(=O)(O)O)[C@@H](O)[C@H]2O)c2nc(N)[nH]c(=O)c21` [m^7GMP], the EC50 at DcpS [3] (setting [7]) was determined as 104 ± 11 nM; at DcpS [3] (setting [8]), 112 ± 11 nM; at DcpS [3] (setting [9]), 255 ± 14 nM; at DcpS [3] (setting [10]), 357 ± 44 nM. Also, the Hill slope at DcpS [3] (setting [7]) is reported as 1.19 ± 0.15; at DcpS [3] (setting [8]) it was 1.04 ± 0.02; on DcpS [3] (setting [9]), 1.00 ± 0.02; on DcpS [3] (setting [10]), 0.93 ± 0.07. In addition, in the assay on DcpS [1], the IC50 was 97000 ± 21000 nM.
On to m^7GSppSpSG D1, for which, at DcpS [2], the “inhibitory potency in DcpS screening” value was “the most potent inhibitors”.
With `C[n+]1cn([C@@H]2O[C@H](COP(=O)([O-])OP(O)(=S)OP(=O)(O)OC[C@H]3O[C@@H](n4cnc5c(=O)[nH]c(N)nc54)[C@H](O)[C@@H]3O)[C@@H](O)[C@H]2O)c2nc(N)[nH]c(=O)c21` (single isomer, unassigned) [m^7GppSpG D2], the figures for the Hill slope on eIF4E (setting [4]), on eIF4E (setting [5]) and on eIF4E (setting [6]) were 1.19 ± 0.06, 1.15 ± 0.06 and 1.04 ± 0.17, respectively. For the same molecule, the EC50 on eIF4E (setting [4]) turned out to be 382 ± 21 nM; at eIF4E (setting [5]) it was 511 ± 109 nM; at eIF4E (setting [6]), 477 ± 89 nM.
On to `Cn1c[n+]([C@@H]2O[C@H](COP(=O)(O)OP(=O)([O-])OP(=O)(O)OC[C@H]3O[C@@H](n4cnc5c(=O)[nH]c(N)nc54)[C@H](O)[C@@H]3O)[C@@H](O)[C@H]2O)c2nc(N)[nH]c(=O)c21` [m^7GpppG], for which the Hill slope on eIF4E (setting [4]) is 1.12 ± 0.03; on eIF4E (setting [5]), 1.12 ± 0.06; at eIF4E (setting [6]), 1.08 ± 0.11. The figures for the EC50 at eIF4E (setting [4]), at eIF4E (setting [5]) and at eIF4E (setting [6]) were 413 ± 13 nM, 599 ± 64 nM and 551 ± 75 nM, respectively.

Broadly, the IC50 is the concentration at which inhibition is half-maximal. A word on the Hill slope: it is a measure of the steepness of the concentration-response curve. One may read the EC50 as the concentration at which the effect is half-maximal.
